# Results published in ChEMBL document CHEMBL1201862, “PubChem BioAssay data set” (2004).
#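 In this assay, cells in 96-well plates receive the compound at five concentrations for 48 hours. Endpoints are linearly interpolated between the surrounding concentrations. Here, GI50 denotes the concentration required for 50% inhibition of growth.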 Activity calls are given as the source filed them. Rule as the data show it: active = GI50 up to about 1.1 µM and inactive = higher.
# How the values were obtained:
# Assay in all cases: growth of human tumour cells (NCI), 48 h
# [1] = test system: UO-31
# [2] = test system: DMS-114
# [3] = test system: SF-295
# [4] = test system: A549
# [5] = test system: SR
# [6] = test system: HOP-62
# [7] = test system: SF-539
# [8] = test system: SK-MEL-28
# [9] = test system: U-251
# [10] = test system: KM-20L2
# [11] = test system: 786-0
# [12] = test system: HOP-92
# [13] = test system: A498
# [14] = test system: SNB-78
# [15] = test system: OVCAR-3
# [16] = test system: SNB-75
# [17] = test system: HT-29
# [18] = test system: SF-268
# [19] = test system: EKVX
# [20] = test system: SK-MEL-5
# [21] = test system: COLO 205
# [22] = test system: DLD-1
# [23] = test system: NCI-H23
# [24] = test system: TK-10
# [25] = test system: SK-OV-3
# [26] = test system: Malme-3M
# [27] = test system: KM12
# [28] = test system: SW-620
# [29] = test system: CCRF-CEM
# [30] = test system: LOX IMVI
# [31] = test system: RXF 393
# [32] = test system: XF498
# [33] = test system: LXFL 529
# [34] = test system: K562
# [35] = test system: CAKI-1
# [36] = test system: OVCAR-4
# [37] = test system: MOLT-4
# [38] = test system: RPMI-8226
# [39] = test system: HOP-18
# [40] = test system: NCI-H460
# [41] = test system: OVCAR-8
# [42] = test system: NCI-H226
# [43] = test system: SNB-19
# [44] = test system: IGROV-1
# [45] = test system: M19-MEL
# [46] = test system: UACC-62
# [47] = test system: RXF 631
# [48] = test system: HCC 2998
# [49] = test system: SN12C
# [50] = test system: M14
# [51] = test system: SK-MEL-2
# [52] = test system: ACHN
# [53] = test system: NCI-H522
# [54] = test system: HL-60
# [55] = test system: OVCAR-5
# [56] = test system: HCT-116
# [57] = test system: HCT-15
# [58] = test system: UACC-257
structure (smiles),measurement,setting,value
CC1=C(C(=O)Nc2ccccc2)C(c2ccc(C(C)C)cc2)C(C(=O)Nc2ccccc2)=C(C)N1,GI50,[1],12.5 µM (inactive)
same,GI50,[2],7.26 µM (inactive)
same,GI50,[3],37.9 µM (inactive)
same,GI50,[4],16.5 µM (inactive)
same,GI50,[5],10.6 µM (inactive)
same,GI50,[6],25.3 µM (inactive)
same,GI50,[7],12.8 µM (inactive)
same,GI50,[8],22.3 µM (inactive)
same,GI50,[9],16 µM (inactive)
same,GI50,[10],15.2 µM (inactive)
same,GI50,[11],15 µM (inactive)
same,GI50,[12],14.2 µM (inactive)
same,GI50,[13],24 µM (inactive)
same,GI50,[14],31.5 µM (inactive)
same,GI50,[15],18.2 µM (inactive)
same,GI50,[16],18.7 µM (inactive)
same,GI50,[17],15.2 µM (inactive)
same,GI50,[18],22.3 µM (inactive)
same,GI50,[19],25.3 µM (inactive)
same,GI50,[20],12.9 µM (inactive)
same,GI50,[21],12.9 µM (inactive)
same,GI50,[22],17.5 µM (inactive)
same,GI50,[23],20 µM (inactive)
same,GI50,[24],48.2 µM (inactive)
same,GI50,[25],22.9 µM (inactive)
same,GI50,[26],15.5 µM (inactive)
same,GI50,[27],22.2 µM (inactive)
same,GI50,[28],17.2 µM (inactive)
same,GI50,[29],13.3 µM (inactive)
same,GI50,[30],15 µM (inactive)
same,GI50,[31],11.8 µM (inactive)
same,GI50,[32],13.1 µM (inactive)
same,GI50,[33],16.7 µM (inactive)
same,GI50,[34],12.1 µM (inactive)
same,GI50,[35],21.9 µM (inactive)
same,GI50,[36],28.5 µM (inactive)
same,GI50,[37],4.86 µM (inactive)
same,GI50,[38],6.71 µM (inactive)
same,GI50,[39],19.1 µM (inactive)
same,GI50,[40],18.9 µM (inactive)
same,GI50,[41],22.3 µM (inactive)
same,GI50,[42],21.3 µM (inactive)
same,GI50,[43],29.4 µM (inactive)
same,GI50,[44],23.2 µM (inactive)
same,GI50,[45],15.6 µM (inactive)
same,GI50,[46],13.6 µM (inactive)
same,GI50,[47],18.2 µM (inactive)
same,GI50,[48],7.19 µM (inactive)
same,GI50,[49],13.6 µM (inactive)
same,GI50,[50],18.2 µM (inactive)
same,GI50,[51],13.8 µM (inactive)
same,GI50,[52],17.3 µM (inactive)
same,GI50,[53],15.1 µM (inactive)
same,GI50,[54],9.59 µM (inactive)
same,GI50,[55],17.3 µM (inactive)
same,GI50,[56],12.7 µM (inactive)
same,GI50,[57],14.8 µM
CC(C)N(CCn1c2c3ccccc3ccc2c2oc(=O)c3ccccc3c21)C(C)C,GI50,[1],> 100 µM (inactive)
same,GI50,[2],> 100 µM (inactive)
same,GI50,[3],> 52.2 µM (inactive)
same,GI50,[4],> 100 µM (inactive)
same,GI50,[5],> 100 µM (inactive)
same,GI50,[6],> 23.1 µM (inactive)
same,GI50,[7],> 43.3 µM (inactive)
same,GI50,[8],> 100 µM (inactive)
same,GI50,[9],> 86.9 µM (inactive)
same,GI50,[10],> 100 µM (inactive)
same,GI50,[11],50.4 µM (inactive)
same,GI50,[12],> 54.3 µM (inactive)
same,GI50,[13],> 100 µM (inactive)
same,GI50,[14],98.9 µM (inactive)
same,GI50,[15],> 100 µM (inactive)
same,GI50,[16],25.2 µM (inactive)
same,GI50,[17],> 100 µM (inactive)
same,GI50,[18],> 69.7 µM (inactive)
same,GI50,[19],> 100 µM (inactive)
same,GI50,[21],> 100 µM (inactive)
same,GI50,[22],> 100 µM (inactive)
same,GI50,[23],> 100 µM (inactive)
same,GI50,[24],> 100 µM (inactive)
same,GI50,[58],> 54.8 µM (inactive)
same,GI50,[25],> 100 µM (inactive)
same,GI50,[26],> 100 µM (inactive)
same,GI50,[27],> 100 µM (inactive)
same,GI50,[28],> 100 µM (inactive)
same,GI50,[29],> 100 µM (inactive)
same,GI50,[30],> 100 µM (inactive)
same,GI50,[31],> 100 µM (inactive)
same,GI50,[32],75.7 µM (inactive)
same,GI50,[33],> 100 µM (inactive)
same,GI50,[34],> 100 µM (inactive)
same,GI50,[35],> 100 µM (inactive)
same,GI50,[36],> 100 µM (inactive)
same,GI50,[37],> 100 µM (inactive)
same,GI50,[38],> 100 µM (inactive)
same,GI50,[39],32.7 µM (inactive)
same,GI50,[40],> 100 µM (inactive)
same,GI50,[41],> 48.6 µM (inactive)
same,GI50,[42],> 100 µM (inactive)
same,GI50,[43],65.8 µM (inactive)
same,GI50,[44],> 100 µM (inactive)
same,GI50,[45],> 100 µM (inactive)
same,GI50,[46],> 100 µM (inactive)
same,GI50,[47],> 100 µM (inactive)
same,GI50,[49],> 100 µM (inactive)
same,GI50,[50],> 100 µM (inactive)
same,GI50,[51],> 100 µM (inactive)
same,GI50,[52],> 100 µM (inactive)
same,GI50,[53],> 100 µM (inactive)
same,GI50,[54],> 100 µM (inactive)
same,GI50,[55],> 100 µM (inactive)
same,GI50,[56],> 100 µM (inactive)
same,GI50,[57],> 100 µM
